Values after ≈ are worked out from the molar mass of the structure shown. Like-named read-outs stand apart in the source and are kept apart here. Non-standard residues stand in square brackets, D forms with d. Residues, ends and D or L forms follow the SMILES beside them. Orn = NCCC[C@H](N)C(=O)O
What was measured:
MCF-7 cells = assay: MTT antiproliferative assay, MCF-7; type: cell-based, human; conditions: for IC50: MTT, 72 h, read-out: Mean IC50 ± SD, MCF-7; for SI (Selectivity Index), MCF-7: SI = IC50 MCF-12F/IC50 tumor cells
Protocol: (§1) The cell lines BALB 3T3 (mouse embryonic fibroblasts) and MCF-12F (human breast epithelial cells) were used as models for healthy tissue. The MCF-7 and MDA-MB-231 cell lines were used as in vitro models for luminal A- and basal B-type breast cancer, respectively. Cell lines were obtained from the American Type Cultures Collection (ATCC, Manassas, VA, USA). Cells were cultured in Dulbecco modified Eagle’s medium (DMEM) supplemented with 10% fetal bovine serum (FBS), 100 U/mL penicillin, and 0.1 mg/mL streptomycin (Sigma-Aldrich, Schnelldorf, Germany) in an incubator at 37 °C, 5% CO2 and 95% humidity. Plastic flasks 75 cm^2 (Biologix, Lenexa, KS, USA) were used to grow the cells.
(§2) The antiproliferative activity testing was performed on cell cultures using the MTT-dye reduction assay. This assay is based on the metabolism of MTT to insoluble formazan by mitochondrial reductases. The formazan concentration can be determined spectrophotometrically. The measured absorption is an indicator of cell viability. Cell lines (MCF-12F, MCF-7 and MDA-MB-231) were used in the experiments. Cells were plated at a density of 1 × 10^3 cells/100 µL in each well of 96-well microplates and allowed to adhere for 24 h before treatment with test compounds. A concentration range from 4 to 1000 μM was applied for 72 h. The formazan absorption was registered using a microplate reader at λ = 540 nm. Antiproliferative activities were expressed as IC50 values (concentrations required for 50% inhibition of cell growth).

MCF-12F cells = assay: MTT antiproliferative assay, MCF-12F; type: cell-based, human; conditions: 72 h, non-tumorigenic cell line, read-out: Mean IC50 ± SD, MCF-12F
Protocol: as §1, §2

MDA-MB-231 cells = assay: MTT antiproliferative assay, MDA-MB-231; type: cell-based, human; conditions: for IC50: MTT, 72 h, read-out: Mean IC50 ± SD, MDA-MB-231; for SI (Selectivity Index), MDA-MB-231: SI = IC50 MCF-12F/IC50 tumor cells
Protocol: as §1, §2

[1] = tested on: Pseudomonas aeruginosa NBIMCC 3700; type: cell-based; conditions: NBIMCC 3700, 24 h
Protocol: (§3) The parent peptide Temporin A and the novel analogs were subjected to tests against model strains Escherichia coli NBIMCC 8785, Bacillus subtilis NBIMCC 3562, Arthrobacter oxydans NBIMCC 9333, Pseudomonas aeruginosa NBIMCC 3700, and Candida albicans NBIMCC 74, for the assessment of their antimicrobial activity. The strains were acquired from the National Bank for Industrial Microorganisms and Cell Cultures (NBIMCC, Bulgaria). The strain E. coli 8785 was cultured in Luria-Bertani broth (LB, HiMedia, Mumbai, India); B. subtilis 3562—in nutrient broth (NB, HiMedia, Mumbai, India); A. oxydans 9333; P. aeruginosa 3700—in meat peptone agar (MPA) medium; and C. albicans 74—in yeast mold (YM) medium. An incubator shaker ES-20/60 (Biosan, Latvia) was used for the cultivation and was set to 30 °C for B. subtilis 3562, A. oxydans 9333, and C. albicans 74; and 37 °C for E. coli 8785 and P. aeruginosa 3700, with a 24 h shaking period at 120 rpm. The microbial cultures were then adjusted to a turbidity of 0.5 McFarland using a Grant-bio DEN-1B densitometer (Grant Instruments, Royston, UK) for further use.
(§4) The minimal inhibitory concentration (MIC) of the peptides was determined using the broth dilution method. Stock solutions of the peptides with a concentration of 10 mg/mL in 10% EtOH/H2O were prepared. Suspensions of the bacteria in the corresponding media were added to 96-well U-shaped bottom polystyrene plates (Deltalab S.L., Spain) and exposed to the peptide in the concentration range from 0 to 320 µg/mL, and a 10% EtOH/H2O control, diluted using the same scheme as the peptides, was also used. The plates were then incubated under aerobic conditions at the corresponding temperature for 24 h. The MIC (µg/mL) was assumed as the lowest concentration of the antimicrobial, where there was visible inhibition of the strain. The absorbance was measured at 630 nm (Microplate reader PKL PPC 142, Paramedical srl, Salerno, Italy). To determine the minimal bactericidal concentration (MBC) and minimal fungicidal concentration (MFC), 10 μL from concentrations greater than or equal to the MIC was placed on the corresponding solid nutrient medium. The Petri dishes were then incubated at 30 or 37 °C for 24 h. All experiments were conducted in a triplicate.

[2] = tested on: Arthrobacter oxydans NBIMCC 9333; type: cell-based; conditions: 24 h
Protocol: as §3, §4

[3] = tested on: Candida albicans NBIMCC 74; type: cell-based; conditions: NBIMCC 74, 24 h
Protocol: as §3, §4

[4] = tested on: Bacillus subtilis NBIMCC 3562; type: cell-based
Protocol: as §3, §4

[5] = tested on: Escherichia coli NBIMCC 8785; type: cell-based; conditions: NBIMCC 8785, 24 h
Protocol: as §3, §4

BALB 3T3 clone A31 cells = assay: 3T3 NRU cytotoxicity/phototoxicity test; type: cell-based, mouse
Protocol: as §1
(§5) The cytotoxicity/phototoxicity testing was performed as described by the OECD Guidelines for the Testing of Chemicals, Section 4, Test No. 432: In Vitro 3T3 NRU Phototoxicity Test. BALB 3T3, clone A31 cells were grown in 75 cm^2 tissue culture flasks in DMEM high-glucose (4.5 g/L), 10% FBS, and antibiotics at 37.5 °C, in a humidified atmosphere under 5% CO2. Cells were plated at 1 × 10^4 cells / 100 μL culture medium in each well of 96-well microplates and allowed to adhere for 24 h before treatment with test compounds. Peptides were dissolved in DMSO and diluted with culture medium to working concentrations from 4 to 1000 μM. In phototoxicity tests, 96-well plates were irradiated (+Irr) with a dose of 2.4 J/cm^2 using an artificial solar light simulator Helios-iO (SERIC Ltd., Tokyo, Japan), and the cells were incubated for an additional 24 h. After treatment with a Neutral Red medium, washing, and application of the NR Desorb solution, the absorption was measured on a microplate reader at a wavelength of 540 nm. Cytotoxicity/phototoxicity was expressed as CC50 values (concentrations required for 50% cytotoxicity).

[6] = 3T3 NRU cytotoxicity/phototoxicity test; type: cell-based, mouse; conditions: mouse
Protocol: as §1, §5

[7] = tested on: Pseudomonas aeruginosa NBIMCC 3700; type: cell-based; conditions: for Inhibition effect, P. aeruginosa 3700: zone of peptide over zone of antibiotic x 100; for Inhibition zone, P. aeruginosa 3700: 20 µL per disc, 24 h
Protocol: as §3
(§6) The disk-diffusion method was used as an additional method, with the aim of determining the percent inhibition of the tested samples against the model strains. Sterile plates with LB/NB/MPA/YM agar medium were inoculated on the surface with 100 μL from each microbial culture and incubated at 30 or 37 °C for 30 min, for the suspension to penetrate the agar. After that, sterile paper discs (HiMedia, Mumbai, India) with a diameter of 6 mm were soaked with 20 µL of the peptide solutions with concentrations of 1.4 mg/mL and 10 mg/mL and placed on the agar surface. Sterile paper discs with 10% EtOH/H2O were used as a negative control, and the corresponding strain antibiotic disks (HiMedia, Mumbai, India)—as a positive control. The incubation of the plate was performed at 30/37 °C for 24 h. The antimicrobial activity was analyzed by measuring the diameter of the inhibition zones in mm. The experiments were conducted in triplicates, and the average values for the percent of inhibition as a correlation between the inhibition zone of the peptides over the inhibition zone of the antibiotic multiplied by 100 were calculated.

[8] = tested on: Arthrobacter oxydans NBIMCC 9333; type: cell-based; conditions: for Inhibition effect, A. oxydans 9333: zone of peptide over zone of antibiotic x 100; for Inhibition zone, A. oxydans 9333: 20 µL per disc, 24 h
Protocol: as §3, §6

[9] = tested on: Candida albicans NBIMCC 74; type: cell-based; conditions: 20 µL per disc, 24 h
Protocol: as §3, §6

[10] = tested on: Bacillus subtilis NBIMCC 3562; type: cell-based; conditions: for Inhibition effect, B. subtilis 3562: zone of peptide over zone of antibiotic x 100; for Inhibition zone, B. subtilis 3562: 20 µL per disc, 24 h
Protocol: as §3, §6

[11] = tested on: Escherichia coli NBIMCC 8785; type: cell-based; conditions: 20 µL per disc, 24 h
Protocol: as §3, §6

With CC[C@H](C)[C@H](NC(=O)CNC(=O)[C@H](CO)NC(=O)[C@H](CC(C)C)NC(=O)[C@@H](NC(=O)[C@H](CCCNC(=N)N)NC(=O)CNC(=O)[C@@H](NC(=O)[C@H](CC(C)C)NC(=O)[C@@H]1CCCN1C(=O)[C@H](CC(C)C)NC(=O)[C@@H](N)Cc1ccccc1)[C@@H](C)CC)C(C)C)C(=O)N[C@@H](CC(C)C)C(N)=O [DTA, FLPLIG-R-VLSGIL-NH2, reference compound] (H-FLPLIGRVLSGIL-NH2) the IC50 (MCF-7 cells) was 73.2 ± 3.36 µM, the “SI (Selectivity Index), MCF-7” value (MCF-7 cells) was 1.90 and the IC50 (MCF-12F cells) was 139 ± 8.36 µM. For the same compound, the IC50 (MDA-MB-231 cells) was 115 ± 4.04 µM, the “SI (Selectivity Index), MDA-MB-231” value (MDA-MB-231 cells) was 1.20 and the “MBC, P. aeruginosa 3700” value [1] was 320 µg/mL (≈ 229 µM). The “MIC, A. oxydans 9333” value [2] was 80 µg/mL (≈ 57.3 µM), the “MIC, C. albicans 74” value [3] was 320 µg/mL (≈ 229 µM) and the “MBC, B. subtilis 3562” value ([4]; NBIMCC 3562, 24 h) was 320 µg/mL (≈ 229 µM). The “MIC, B. subtilis 3562” value ([4]; NBIMCC 3562, 24 h) was 80 µg/mL (≈ 57.3 µM), the “MIC, E. coli 8785” value [5] was 320 µg/mL (≈ 229 µM) and the “PIF (photo irritation factor)” value (BALB 3T3 clone A31 cells) was 1.01. The CC50 [6] was 106 ± 4.18 µM and the CC50 at 24 h [6] was 105 ± 4.88 µM.
With CC[C@H](C)[C@H](NC(=O)CNC(=O)[C@H](CO)NC(=O)[C@H](CC(C)C)NC(=O)[C@@H](NC(=O)[C@H](CCCN)NC(=O)CNC(=O)[C@@H](NC(=O)[C@H](CC(C)C)NC(=O)[C@@H]1CCCN1C(=O)[C@H](CC(C)C)NC(=O)[C@@H](N)Cc1ccccc1)[C@@H](C)CC)C(C)C)C(=O)N[C@@H](CC(C)C)C(N)=O [DTOrn, FLPLIG-Orn-VLSGIL-NH2] (H-FLPLIG[Orn]VLSGIL-NH2; N-terminus assumed) the “Inhibition effect, P. aeruginosa 3700” value ([7]; 1.4 mg/mL) was 0.0%, the “Inhibition effect, P. aeruginosa 3700” value ([7]; 10 mg/mL) was 70.6% and the “Inhibition zone, P. aeruginosa 3700” value ([7]; peptide 1.4 mg/mL) was 0.0 mm. The “Inhibition zone, P. aeruginosa 3700” value ([7]; peptide 10 mg/mL) was 11.3 ± 0.6 mm, the “Inhibition effect, A. oxydans 9333” value ([8]; 1.4 mg/mL) was 0.0% and the “Inhibition effect, A. oxydans 9333” value ([8]; 10 mg/mL) was 43.7%. For the same compound, the “Inhibition zone, A. oxydans 9333” value ([8]; peptide 1.4 mg/mL) was 0.0 mm, the “Inhibition zone, A. oxydans 9333” value ([8]; peptide 10 mg/mL) was 8.3 ± 0.6 mm and the “Inhibition zone, C. albicans 74” value ([9]; peptide 1.4 mg/mL) was 0.0 mm. For the same compound, the “Inhibition zone, C. albicans 74” value ([9]; peptide 10 mg/mL) was 0.0 mm, the “Inhibition effect, B. subtilis 3562” value ([10]; 1.4 mg/mL) was 0.0% and the “Inhibition effect, B. subtilis 3562” value ([10]; 10 mg/mL) was 32.8%. For the same compound, the “Inhibition zone, B. subtilis 3562” value ([10]; peptide 1.4 mg/mL) was 0.0 mm, the “Inhibition zone, B. subtilis 3562” value ([10]; peptide 10 mg/mL) was 8.2 ± 0.3 mm and the “Inhibition zone, E. coli 8785” value ([11]; peptide 1.4 mg/mL) was 0.0 mm. The “Inhibition zone, E. coli 8785” value ([11]; peptide 10 mg/mL) was 0.0 mm, the IC50 (MCF-7 cells) was 196 ± 3.63 µM and the “SI (Selectivity Index), MCF-7” value (MCF-7 cells) was 1.56. For the same compound, the IC50 (MCF-12F cells) was 306 ± 10.8 µM, the IC50 (MDA-MB-231 cells) was 303 ± 8.67 µM and the “SI (Selectivity Index), MDA-MB-231” value (MDA-MB-231 cells) was 1.01. The “MIC, A. oxydans 9333” value ([2]; broth dilution, 0 to 320 µg/mL, NI = no inhibition monitored) was 160 µg/mL (≈ 118 µM), the “MBC, A. oxydans 9333” value ([2]; plated from concentrations ≥ MIC) was 160 µg/mL (≈ 118 µM) and the “MIC, B. subtilis 3562” value ([4]; broth dilution, 0 to 320 µg/mL, 24 h, NI = no inhibition monitored) was 160 µg/mL (≈ 118 µM). For the same compound, the “MBC, B. subtilis 3562” value ([4]; plated from concentrations ≥ MIC, 24 h) was 320 µg/mL (≈ 236 µM), the “PIF (photo irritation factor)” value (BALB 3T3 clone A31 cells; PIF = CC50 −Irr/CC50 +Irr, PIF < 2 = not phototoxic) was 0.98 and the CC50 ([6]; cytotoxicity, no irradiation, BALB 3T3 clone A31, Neutral Red uptake, read-out: Mean CC50 ± SD, −Irr) was 337 ± 7.09 µM. The CC50 at 24 h ([6]; phototoxicity, irradiated 2.4 J/cm^2, BALB 3T3 clone A31, Neutral Red uptake, read-out: Mean CC50 ± SD, +Irr) was 345 ± 6.41 µM.

— paper PMC11207040, “Synthesis and Biological Studies of New Temporin A Analogs Containing Unnatural Amino Acids in Position 7” (Pharmaceutics, 2024)
